# Laboratory results published in US20230212121A1 (DAEGU-GYEONGBUK MEDICAL INNOVATION FOUNDATION, priority 2020, published 2023).
# Tests used:
# Format in all cases: cell-based
# [1] = target: T1, dopamine transporter (DAT) (Homo sapiens, UniProt Q01959); experiment: Dopamine reuptake inhibition, [3H]-DA, HEK-293 cells transfected with dopamine transporter cDNA; details: for Triple reuptake inhibition (Ratio %) DAT: compound 1 μM, 20-30 nM [3H]-DA, relative to control without compound = 100%, lower value = more inhibition; for IC50: concentration at which Ratio % is 50%, 6 concentrations 1 nM to 1 μM, read-out: Triple reuptake inhibition (IC50, μM) DAT
# T1 construct: expressed in transfected cells; host or cells: HEK-293
# Description: (§1) In order to evaluate the reuptake inhibitory effect of the compounds of the Examples according to the present invention on serotonin, norepinephrine and dopamine, the experiments below were performed, and the results are shown in Table 17.
# (§2) To evaluate the reuptake inhibition effect on dopamine, the dopamine transporter cDNA was transfected using the HEK-293 cell line, and then sub-seeded in a 24 well plate the next day. After removing the medium, each compound of the Examples or Comparative Examples diluted to 1 μM in uptake buffer was added to a concentration of 200 μl/well and cultured at 37° C. for 15 minutes. 100 μl of uptake buffer containing 20-30 nM [3H]-DA was added and cultured at 37° C. for 5 minutes. The reaction solution was quickly removed and washed three times with 1 ml ice-cold uptake buffer. After dissolving the resultant in 1% SDS (0.5 ml), the degree of binding of radioisotope-labeled dopamine to the transporter was measured.
# (§3) In addition, when evaluating the reuptake inhibitory effect on dopamine, norepinephrine, and serotonin, the same method was performed without treating each compound of the Examples or Comparative Examples as a control, the degree of binding of radioisotope-labeled dopamine, norepinephrine, and serotonin to the transporter was measured, and by using this as a reference (100%), the triple reuptake inhibitory effect was evaluated as a relative ratio (Ratio %). That is, in the control group, the binding of dopamine, norepinephrine, and serotonin to transporters is not inhibited, but when each compound of the Examples is treated and thus the binding is inhibited, the Ratio % value decreases.
# (§4) Meanwhile, the Ratio % values were compared, and in the case of the compounds of Examples 6, 10, 13, 14, 17, 20, 21, 22, 30, 31, 32, 34, 36, 38, 39, 40, 54, 55, 56, 57, 58 and 73 with excellent reuptake inhibitory effects on dopamine, norepinephrine and serotonin, the concentration at which the Ratio % is 50% was calculated using a total of 6 concentrations (1 nM, 5 nM, 10 nM, 50 nM, 100 nM, and 1 μM) and expressed as IC50.
# [2] = target: T2, norepinephrine transporter (NET) (Homo sapiens, UniProt P23975); experiment: Norepinephrine reuptake inhibition, [3H]-NE, HEK-293 cells transfected with NE transporter cDNA; details: for Triple reuptake inhibition (Ratio %) NET: compound 1 μM, [3H]-NE, relative to control without compound = 100%, lower value = more inhibition; for IC50: concentration at which Ratio % is 50%, 6 concentrations 1 nM to 1 μM, read-out: Triple reuptake inhibition (IC50, μM) NET
# T2 construct: expressed in transfected cells; host or cells: HEK-293
# Description: as §1, §2
# (§5) For norepinephrine (NE) and serotonin (5-HT), the degree of binding of radioisotope-labeled norepinephrine or serotonin to the transporter was measured in the same manner as above, except that cells transfected with NE or 5-HT transporter cDNA were used and [3H]—NE or [3H]-5-HT was used as a substrate.
# as §3, §4
# [3] = target: T3, serotonin transporter (SERT) (Homo sapiens, UniProt P31645); experiment: Serotonin reuptake inhibition, [3H]-5-HT, HEK-293 cells transfected with 5-HT transporter cDNA; details: for Triple reuptake inhibition (Ratio %) SERT: compound 1 μM, [3H]-5-HT, relative to control without compound = 100%, lower value = more inhibition; for IC50: concentration at which Ratio % is 50%, 6 concentrations 1 nM to 1 μM, read-out: Triple reuptake inhibition (IC50, μM) SERT
# T3 construct: expressed in transfected cells; host or cells: HEK-293
# Description: as §1, §2, §5, §3, §4
# T1 sequence (Q01959 whole entry, species assumed): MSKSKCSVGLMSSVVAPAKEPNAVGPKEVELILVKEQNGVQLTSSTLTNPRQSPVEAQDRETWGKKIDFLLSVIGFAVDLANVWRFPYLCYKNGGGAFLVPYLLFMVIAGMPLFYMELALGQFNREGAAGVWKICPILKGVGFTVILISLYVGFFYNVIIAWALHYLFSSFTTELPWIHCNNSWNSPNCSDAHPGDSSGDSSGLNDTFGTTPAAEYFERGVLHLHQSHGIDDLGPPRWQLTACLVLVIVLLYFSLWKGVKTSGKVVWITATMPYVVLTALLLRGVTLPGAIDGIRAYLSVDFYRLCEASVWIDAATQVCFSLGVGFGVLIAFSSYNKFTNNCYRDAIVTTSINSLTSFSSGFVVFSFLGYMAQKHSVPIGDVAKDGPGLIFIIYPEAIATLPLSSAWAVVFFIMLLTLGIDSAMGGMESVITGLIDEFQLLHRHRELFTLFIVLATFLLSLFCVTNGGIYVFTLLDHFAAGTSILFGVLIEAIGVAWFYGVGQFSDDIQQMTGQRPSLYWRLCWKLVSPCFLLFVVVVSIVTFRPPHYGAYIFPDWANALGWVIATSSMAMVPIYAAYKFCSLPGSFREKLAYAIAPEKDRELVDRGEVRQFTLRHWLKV
# T3 sequence (P31645 whole entry, species assumed): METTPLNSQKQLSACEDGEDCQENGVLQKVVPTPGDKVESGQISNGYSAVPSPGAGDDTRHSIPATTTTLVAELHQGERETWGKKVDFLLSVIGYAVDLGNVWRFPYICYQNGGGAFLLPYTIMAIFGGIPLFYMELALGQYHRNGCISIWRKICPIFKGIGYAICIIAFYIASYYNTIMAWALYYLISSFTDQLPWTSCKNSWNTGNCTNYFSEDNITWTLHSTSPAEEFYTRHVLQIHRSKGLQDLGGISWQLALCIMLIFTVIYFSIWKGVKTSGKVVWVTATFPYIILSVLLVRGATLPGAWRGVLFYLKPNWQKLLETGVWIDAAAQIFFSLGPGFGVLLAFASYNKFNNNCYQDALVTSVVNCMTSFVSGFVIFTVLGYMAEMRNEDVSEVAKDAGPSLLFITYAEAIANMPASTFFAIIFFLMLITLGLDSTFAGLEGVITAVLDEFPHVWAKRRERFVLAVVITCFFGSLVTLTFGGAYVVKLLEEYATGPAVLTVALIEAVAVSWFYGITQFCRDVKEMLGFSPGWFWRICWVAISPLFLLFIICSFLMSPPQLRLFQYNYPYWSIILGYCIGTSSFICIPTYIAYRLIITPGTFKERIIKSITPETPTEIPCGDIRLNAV
# T2 sequence (P23975 whole entry, species assumed): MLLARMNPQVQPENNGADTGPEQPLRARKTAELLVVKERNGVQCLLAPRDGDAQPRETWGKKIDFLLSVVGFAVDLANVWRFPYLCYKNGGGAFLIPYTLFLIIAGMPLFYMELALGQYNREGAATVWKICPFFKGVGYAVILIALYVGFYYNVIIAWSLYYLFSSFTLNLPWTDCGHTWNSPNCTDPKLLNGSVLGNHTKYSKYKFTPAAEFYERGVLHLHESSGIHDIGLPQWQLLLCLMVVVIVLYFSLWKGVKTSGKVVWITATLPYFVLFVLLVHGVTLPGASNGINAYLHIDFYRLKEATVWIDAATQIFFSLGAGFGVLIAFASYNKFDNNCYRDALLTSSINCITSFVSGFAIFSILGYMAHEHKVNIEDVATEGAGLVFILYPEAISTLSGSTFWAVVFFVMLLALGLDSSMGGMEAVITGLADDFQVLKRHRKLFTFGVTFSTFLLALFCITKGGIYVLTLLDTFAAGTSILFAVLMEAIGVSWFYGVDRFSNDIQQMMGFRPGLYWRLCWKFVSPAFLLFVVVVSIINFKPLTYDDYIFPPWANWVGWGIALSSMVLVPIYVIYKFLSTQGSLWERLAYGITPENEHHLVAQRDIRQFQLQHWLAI
Compound,Triple reuptake inhibition (Ratio %) DAT [1] [%],Triple reuptake inhibition (Ratio %) NET [2] [%],Triple reuptake inhibition (Ratio %) SERT [3] [%],IC50 [3] [µM],IC50 [1] [µM],IC50 [2] [µM]
"O=S(=O)(NCCCN1CCN(c2ccc(Cl)cc2)CC1)c1ccc2ccccc2n1 [Example 73, N-(3-(4-(4-chlorophenyl)piperazin-1-yl)propyl)quinolin-2-sulfonamide]",68.53,64.45,47.19,0.102,,
"CCCCOc1ccc(S(=O)(=O)NCCN2CCC(c3c[nH]c4ccc(C)cc34)CC2)cc1 [Example 7, 4-butoxy-N-(2-(4-(5-methyl-1H-indol-3-yl)piperidin-1-yl)ethyl)benzenesulfonamide]",99.63,88.38,93.29,,,
"CCCCOc1ccc(S(=O)(=O)NCCCN2CCC(Cc3ccc(F)cc3)CC2)cc1 [Example 32, 4-butoxy-N-(3-(4-(4-fluorobenzyl)piperidin-1-yl)propyl)benzenesulfonamide]",45.64,20.42,30.80,0.386,2.14,0.749
O=S(=O)(NCCCN1CCC(c2ccccc2)CC1)c1cccc2ccccc12 [Example 63],80.21,34.97,64.15,,,
"O=S(=O)(NCCCN1CCN(c2ccc(Cl)cc2)CC1)c1ccc2ccccc2c1 [Example 70, N-(3-(4-(4-chlorophenyl)piperazin-1-yl)propyl)naphthalen-2-sulfonamide]",86.5,87.27,45.16,,,
"O=S(=O)(NCCN1CCC(c2ccccc2)CC1)c1ccc2ccccc2c1 [Example 42, N-(2-(4-phenylpiperidin-1-yl)ethyl)naphthalen-2-sulfonamide]",80.21,34.97,64.15,,,
"O=S(=O)(NCCN1CCC(Cc2ccccc2)CC1)c1ccc2ccccc2c1 [Example 38, N-(2-(4-benzylpiperidin-1-yl)ethyl) naphthalen-2-sulfonamide]",56.59,21.54,34.20,,0.493,
"O=S(=O)(NCCN1CCC(Cc2ccccc2)CC1)c1ccc(-c2ccccc2)cc1 [Example 40, N-(2-(4-benzylpiperidin-1-yl)ethyl)-[1,1′-biphenyl]-4-sulfonamide]",41.80,33.45,33.23,3.08,3.92,1.05
"CCCCNc1ccc(S(=O)(=O)NCCCN2CCC(Cc3ccccc3)CC2)cc1 [Example 16, N-(3-(4-benzylpiperidin-1-yl)propyl)-4-(butylamino)benzenesulfonamide]",93.59,53.45,74.25,,,
"CCCCOc1ccc(S(=O)(=O)NCCCN2CCC(Cc3ccc(Cl)c(Cl)c3)CC2)cc1 [Example 20, 4-butoxy-N-(3-(4-(3,4-dichlorobenzyl)piperidin-1-yl)propyl)benzenesulfonamide]",56.29,30.29,40.46,0.504,2.16,0.221
"COc1ccc(S(=O)(=O)NCCCN2CCC(Cc3ccccc3)CC2)cc1 [Example 14, N-(3-(4-benzylpiperidin-1-yl)propyl)-4-methoxybenzenesulfonamide]",39.90,22.30,55.67,1.75,1.26,0.173
"O=S(=O)(NCCN1CCC(c2ccccc2)CC1)c1ccc(-c2ccccc2)cc1 [Example 44, N-(2-(4-phenylpiperidin-1-yl)ethyl)-[1,1′-biphenyl]-4-sulfonamide]",37.93,14.04,15.55,,,
"O=S(=O)(NCCN1CCC(Cc2ccccc2)CC1)c1ccc(Oc2ccccc2)cc1 [Example 3, N-(2-(4-benzylpiperidin-1-yl)ethyl)-4-phenoxybenzenesulfonamide]",50.09,56.36,62.10,,,
"O=S(=O)(NCCN1CCC(Cc2ccccc2)CC1)c1cccc2ccccc12 [Example 39, N-(2-(4-benzylpiperidin-1-yl)ethyl)naphthalen-1-sulfonamide]",31.26,18.46,15.77,,1.16,
"CCCCOc1ccc(S(=O)(=O)NCCN2CCC(Cc3ccc(Cl)c(Cl)c3)CC2)cc1 [Example 4, 4-butoxy-N-(2-(4-(3,4-dichlorobenzyl)piperidin-1-yl)ethyl)benzenesulfonamide]",88.71,80.47,76.57,,,
CCCCOc1ccc(S(=O)(=O)NCCN2CCC(c3c[nH]c4ccccc34)CC2)cc1 [Example 6],54.56,81.97,29.04,0.457,1.99,
"CCCCOc1ccc(S(=O)(=O)NCCCN2CCN(Cc3ccccc3)CC2)cc1 [Example 27, N-(3-(4-benzylpiperazin-1-yl)propyl)-4-butoxybenzenesulfonamide]",88.17,36.89,76.16,,,
"CCCCOc1ccc(S(=O)(=O)NCCCN2CCC(Cc3ccc(F)c(F)c3)CC2)cc1 [Example 21, 4-butoxy-N-(3-(4-(3,4-difluorobenzyl)piperidinyl)propyl)benzenesulfonamide]",57.35,26.67,38.74,0.455,4.72,0.946
"CCCCOc1ccc(S(=O)(=O)NCCCN2CCN(c3cccc(C(F)(F)F)c3)CC2)cc1 [Example 26, 4-butoxy-N-(3-(4-(3-(trifluoromethyl)phenyl)piperazin-1-yl)propyl)benzenesulfonamide]",97.83,93.31,50.98,,,
"CN(C)CCC(=O)Nc1ccc(S(=O)(=O)NCCCN2CCC(Cc3ccccc3)CC2)cc1 [Example 18, N-(4-(N-(3-(4-benzylpiperidin-1-yl)propyl)sulfamoyl)phenyl)-3-(dimethylamino)propaneamide]",65.67,66.54,,,,
"O=S(=O)(NCCCN1CCN(c2ccc(Cl)cc2)CC1)c1cccc2ccccc12 [Example 71, N-(3-(4-(4-chlorophenyl)piperazin-1-yl)propyl)naphthalen-1-sulfonamide]",68.53,64.45,47.19,,,
"CCCCOc1ccc(S(=O)(=O)NCCCN2CCN(c3cccc(Cl)c3Cl)CC2)cc1 [Example 24, 4-butoxy-N-(3-(4-(2,3-dichlorophenyl)piperazin-1-yl)propyl)benzenesulfonamide]",99.30,58.70,60.27,,,
"CCCCOc1ccc(S(=O)(=O)NCCCN2CCC(Cc3cccc(Cl)c3)CC2)cc1 [Example 31, 4-butoxy-N-(3-(4-(3-chlorobenzyl)piperidin-1-yl)propyl)benzenesulfonamide]",,18.93,14.27,0.216,1.05,0.041
